From US20200288710A1, “SUBSTITUTED SULPHONAMIDES FOR CONTROLLING ANIMAL PESTS” (BAYER CROPSCIENCE AKTIENGESELLSCHAFT, priority 2016, published 2020)

Key:
Assay type in all cases: in vivo
Meloidogyne incognita = Meloidogyne incognita test; conditions: 336 h, lettuce, after 14 days, read-out: nematicidal efficacy (formation of galls)
Method in brief: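 Gall formation on lettuce roots scored after 14 days: 0% means gall count equals untreated control, 100% means none. Sand vessels held the compound (acetone concentrate diluted in water), southern root-knot nematode egg/larvae suspension and lettuce seeds.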

Myzus persicae [1] = test: Myzus persicae spray test (bell pepper plants); conditions: 144 h, after 6 days, read-out: efficacy (kill in %)
Procedure: Myzus persicae—Spray Test Solvent: 14 parts by weight of dimethylformamide Emulsifier: alkylaryl polyglycol ether To produce a suitable preparation of active compound, 1 part by weight of active compound is dissolved using the specified parts by weight of solvent and made up with water containing an emulsifier concentration of 1000 ppm until the desired concentration is attained. To produce further test concentrations, the formulation is diluted with emulsifier-containing water. If the addition of ammonium salts or/and penetrants is required, these are each added in a concentration of 1000 ppm to the formulation solution. Bell pepper plants (Capsicum annuum) severely infested with the green peach aphid (Myzus persicae) are treated by spraying with the active compound preparation in the desired concentration. After 6 days, the kill in % is determined. 100% means that all of the aphids have been killed; 0% means that none of the aphids have been killed.

Myzus persicae [2] = test: Myzus persicae oral test; conditions: 120 h, 20 ppm, oral uptake, after 5 days, read-out: efficacy
Method in brief: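 Aphids of mixed ages imbibe, through parafilm, compound solution (acetone stock, water-diluted) combined with sugar-supplemented IPL41 medium to 200 μl. Efficacy read at day 5 as percent killed, 0% meaning no deaths.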

Lucilia cuprina = Lucilia cuprina test; conditions: 48 h, L1 larvae, after 2 days, read-out: efficacy (kill in %)
Method in brief: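 About 20 L1 larvae were held on minced horsemeat treated with compound, which was formulated in DMSO and diluted with water. Percent kill was scored after 2 days.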

Musca domestica = Musca domestica test; conditions: 48 h, adult houseflies, after 2 days, read-out: efficacy (kill in %)
Procedure: Musca domestica Test Solvent: dimethyl sulphoxide To produce a suitable preparation of active compound, 10 mg of active compound are mixed with 0.5 ml of dimethyl sulphoxide, and the concentrate is diluted with water to the desired concentration. Vessels containing a sponge treated with sugar solution and the active compound preparation of the desired concentration are populated with 10 adult houseflies (Musca domestica). After 2 days, the kill in % is determined. 100% means that all of the flies have been killed; 0% means that none of the flies have been killed.

Myzus persicae [3] = test: Myzus persicae spray test (Chinese cabbage leaf discs); conditions: foliar, 120 h, 500 g/ha, after 5-6 days, read-out: efficacy
Method in brief: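 Formulated compound in acetone/dimethylformamide, diluted in water with 1000 ppm emulsifier, was sprayed onto Brassica pekinensis leaf discs carrying mixed-stage Myzus persicae. Percent mortality was read 5-6 days later (0% = no aphids killed, 100% = all killed).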

Phaedon cochleariae = Phaedon cochleariae spray test; conditions: foliar, 168 h, Chinese cabbage leaf discs, larvae, after 7 days, read-out: efficacy
Method in brief: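 Mortality of beetle larvae scored at day 7, expressed as % (0% none killed, 100% all). Formulation: compound in solvent, made up and further diluted with emulsifier-containing water (1000 ppm emulsifier).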

Aphis gossypii = Aphis gossypii spray test; conditions: 100 ppm, cotton plants, after 6 days
Procedure: Aphis gossypii—Spray Test Solvent: 14 parts by weight of dimethylformamide Emulsifier: alkylaryl polyglycol ether To produce a suitable preparation of active compound, 1 part by weight of active compound is dissolved using the specified parts by weight of solvent and made up with water containing an emulsifier concentration of 1000 ppm until the desired concentration is attained. To produce further test concentrations, the formulation is diluted with emulsifier-containing water. If the addition of ammonium salts or/and penetrants is required, these are each added in a concentration of 1000 ppm to the formulation solution. Cotton plants (Gossypium hirsutum) which are heavily infested by the cotton aphid (Aphis gossypii) are sprayed with an active compound preparation of the desired concentration. After 6 days, the kill in % is determined. 100% means that all the aphids have been killed; 0% means that no aphids have been killed.

Boophilus microplus = Boophilus microplus injection test; conditions: 20 μg/animal, injection into engorged adult female cattle ticks, after 7 days
Procedure: Boophilus microplus—Injection Test Solvent: dimethyl sulphoxide To produce a suitable preparation of active compound, 10 mg of active compound are mixed with 0.5 ml of solvent and the concentrate is diluted with solvent to the desired concentration. 1 μl of the active compound solution is injected into the abdomen of 5 engorged adult female cattle ticks (Boophilus microplus). The animals are transferred into dishes and kept in a climate-controlled room. Efficacy is assessed after 7 days by laying of fertile eggs. Eggs which are not externally visibly fertile are stored in a climate-controlled cabinet until the larvae hatch after about 42 days. An efficacy of 100% means that none of the ticks has laid any fertile eggs; 0% means that all the eggs are fertile.

Tetranychus urticae = Tetranychus urticae spray test, OP-resistant; conditions: foliar, 144 h, bean leaf discs, after 6 days, read-out: efficacy
Procedure: Tetranychus urticae—Spray Test, OP-Resistant
To produce a suitable preparation of active compound, 1 part by weight of active compound is dissolved using the specified parts by weight of solvent and made up with water containing an emulsifier concentration of 1000 ppm until the desired concentration is attained. To produce further test concentrations, the formulation is diluted with emulsifier-containing water.
Discs of bean leaves (Phaseolus vulgaris) infested with all stages of the greenhouse red spider mite (Tetranychus urticae) are sprayed with an active compound preparation of the desired concentration.
After 6 days, the efficacy in % is determined. 100% means that all the spider mites have been killed; 0% means that no spider mites have been killed.

Row | SMILES | pest or weed control at 20 ppm (Meloidogyne incognita) [%] | pest or weed control at 100 ppm (Myzus persicae [1]) [%] | pest or weed control at 20 ppm (Myzus persicae [2]) [%] | pest or weed control at 100 ppm (Lucilia cuprina) [%] | pest or weed control at 100 ppm (Musca domestica) [%] | pest or weed control at 500 g/ha (Phaedon cochleariae) [%] | further results
1 | COc1ccccc1S(=O)(=O)NC(=O)c1cn(C)c(-c2ncccc2F)n1 [Example 538] | 90 | 100 | 100 | – | – | – | –
2 | Cc1[nH]c(-c2ccc(Cl)c(Cl)c2)nc1C(=O)NS(=O)(=O)C(C)C [Example 237] | – | 90 | 100 | – | – | – | –
3 | COc1ccc(Cl)c(S(=O)(=O)NC(=O)c2cn(C)c(-c3c(F)cccc3Cl)n2)c1 [Example 107] | – | – | 100 | 100 | 100 | 100 | pest or weed control at 500 g/ha (Myzus persicae [3]): 100%
4 | CCn1c(C(=O)NS(=O)(=O)c2ccccc2Br)nc(-c2c(F)cccc2F)c1C [Example 415] | 100 | 100 | 100 | – | – | – | –
5 | Cc1[nH]c(C(=O)NS(=O)(=O)c2ccccc2Br)nc1-c1c(F)cccc1F [Example 146] | – | 90 | – | – | – | – | –
6 | Cn1cc(C(=O)NS(=O)(=O)Cc2ccccc2)nc1-c1ccccc1Cl [Example 60] | 100 | 85 | 100 | – | – | – | –
7 | Cc1cccc(Cl)c1S(=O)(=O)NC(=O)c1cn(C)c(-c2ncccc2Cl)n1 [Example 576] | – | – | 100 | 100 | 100 | 100 | pest or weed control at 500 g/ha (Myzus persicae [3]): 100%
8 | Cc1ccccc1S(=O)(=O)NC(=O)c1cn(C)c(-c2cccc(F)c2F)n1 [Example 518] | 90 | 95 | 100 | – | – | – | –
9 | Cc1[nH]c(-c2ccc(F)cc2F)nc1C(=O)NS(=O)(=O)c1ccccc1Cl [Example 616] | 100 | 97 | 100 | – | – | – | –
10 | Cc1c(C(=O)NS(=O)(=O)c2ccccc2Cl)nc(-c2ccccc2Cl)n1C [Example 103] | 100 | – | 100 | – | – | – | efficacy (kill in %) (Aphis gossypii): 98%
11 | Cn1cc(C(=O)NS(=O)(=O)c2ccc(Cl)cc2Cl)nc1-c1ccccc1Cl [Example 231] | 100 | – | – | 100 | 100 | 100 | pest or weed control at 500 g/ha (Myzus persicae [3]): 90%
12 | Cc1c(C(=O)NS(=O)(=O)c2ccccc2Cl)nc(-c2c(F)cccc2F)n1C [Example 194] | 90 | – | 100 | – | – | – | efficacy (kill in %) (Aphis gossypii): 100%
13 | CCc1ccccc1S(=O)(=O)NC(=O)c1cn(C)c(-c2ccccc2Cl)n1 [Example 219] | 90 | – | 100 | 100 | 85 | – | efficacy (laying of fertile eggs) (Boophilus microplus): 80%; pest or weed control at 500 g/ha (Myzus persicae [3]): 100%
14 | CCn1cc(C(=O)NS(=O)(=O)c2cc(OC)ccc2Cl)nc1-c1ccccc1Cl [Example 68] | 90 | 100 | 100 | 100 | 80 | – | –
15 | Cc1ccc(C)c(S(=O)(=O)NC(=O)c2cn(C)c(-c3c(F)cccc3F)n2)c1 [Example 394] | 90 | – | 100 | 95 | 100 | 100 | pest or weed control at 500 g/ha (Myzus persicae [3]): 100%
16 | Cc1ccccc1S(=O)(=O)NC(=O)c1cn(C)c(-c2c(C)cccc2C)n1 [Example 478] | 90 | 99 | 100 | – | – | – | –
17 | Cc1nc(C)c(S(=O)(=O)NC(=O)c2cn(C)c(-c3c(F)cccc3F)n2)s1 [Example 347] | – | 90 | 90 | – | – | – | –
18 | Cc1c(C(=O)NS(=O)(=O)c2ccccc2Br)nc(-c2c(F)cccc2F)n1C [Example 195] | 90 | – | 100 | – | – | 100 | pest or weed control at 20 ppm (Myzus persicae [1]; 20 ppm): 80%; pest or weed control at 500 g/ha (Tetranychus urticae): 90%
19 | Cc1ccccc1S(=O)(=O)NC(=O)c1cn(C)c(-c2ccc(Cl)c(Cl)c2)n1 [Example 536] | 90 | 80 | 100 | – | – | – | –
20 | Cc1ccc(C)c(S(=O)(=O)NC(=O)c2cn(C)c(-c3cccc4ccccc34)n2)c1 [Example 502] | 100 | – | 100 | – | – | 100 | efficacy (kill in %) (Aphis gossypii): 95%
21 | Cc1ccccc1S(=O)(=O)NC(=O)c1cn(C)c(-c2ccccc2-c2ccccc2)n1 [Example 533] | – | 90 | 100 | – | – | – | –
22 | Cc1cccc(C)c1S(=O)(=O)NC(=O)c1cn(C)c(-c2c(F)cccc2F)n1 [Example 186] | 90 | – | 100 | 100 | 85 | 100 | pest or weed control at 500 g/ha (Myzus persicae [3]): 100%
